In the supplement of paper PMC13380429:

Tests used:
Settings in all cases: 72 h
Vero E6 [1] = test: relative viability EC50 (midpoint between 100% and the lowest measured viability); higher = less toxic
HepG2 [2] = test: as above
U2OS [3] = test: as above
Calu-3 [4] = test: as above
Caco-2 [5] = test: as above
Vero E6 [6] = test: cell viability relative to DMSO; higher = less toxic
HepG2 [7] = test: as above
U2OS [8] = test: as above
Calu-3 [9] = test: as above
Caco-2 [10] = test: as above
Vero E6 [11] = test: drug sensitivity score (DSS) for viability; higher = more toxic; extreme values may be limits of the assay
HepG2 [12] = test: as above
U2OS [13] = test: as above
Calu-3 [14] = test: as above
Caco-2 [15] = test: as above

SMILES	relative viability EC50 (Vero E6 [1]) [µM]	relative viability EC50 (HepG2 [2]) [µM]	relative viability EC50 (U2OS [3]) [µM]	relative viability EC50 (Calu-3 [4]) [µM]	relative viability EC50 (Caco-2 [5]) [µM]	cell viability (Vero E6 [6]; 1 nM) [%]	cell viability (Vero E6 [6]; 10 nM) [%]	cell viability (Vero E6 [6]; 100 nM) [%]	cell viability (Vero E6 [6]; 1000 nM) [%]	cell viability (Vero E6 [6]; 10000 nM) [%]	cell viability (HepG2 [7]; 1 nM) [%]	cell viability (HepG2 [7]; 10 nM) [%]	cell viability (HepG2 [7]; 100 nM) [%]	cell viability (HepG2 [7]; 1000 nM) [%]	cell viability (HepG2 [7]; 10000 nM) [%]	cell viability (U2OS [8]; 1 nM) [%]	cell viability (U2OS [8]; 10 nM) [%]	cell viability (U2OS [8]; 100 nM) [%]	cell viability (U2OS [8]; 1000 nM) [%]	cell viability (U2OS [8]; 10000 nM) [%]	cell viability (Calu-3 [9]; 1 nM) [%]	cell viability (Calu-3 [9]; 10 nM) [%]	cell viability (Calu-3 [9]; 100 nM) [%]	cell viability (Calu-3 [9]; 1000 nM) [%]	cell viability (Calu-3 [9]; 10000 nM) [%]	cell viability (Caco-2 [10]; 1 nM) [%]	cell viability (Caco-2 [10]; 10 nM) [%]	cell viability (Caco-2 [10]; 100 nM) [%]	cell viability (Caco-2 [10]; 1000 nM) [%]	cell viability (Caco-2 [10]; 10000 nM) [%]	drug sensitivity score (Vero E6 [11])	drug sensitivity score (HepG2 [12])	drug sensitivity score (U2OS [13])	drug sensitivity score (Calu-3 [14])	drug sensitivity score (Caco-2 [15])
CN1CCCN=C1COC(=O)C(O)(c1ccccc1)C1CCCCC1 (stereo not given) [oxyphencyclimine]	> 10	> 10	> 10	> 10	> 10	103	104	100	91.7	91.8	93.6	102	105	91.3	92.2	97.2	101	94.6	97.3	93	93	102	102	98.8	94.7	99.8	99.3	100	106	102	0	0	0	0	0
O=c1ccc2ccc(O)c(O)c2o1 [daphnetin]	> 10	> 10	> 10	> 10	> 10	106	100	98.3	93	101	102	105	87.3	87.5	82.1	111	108	101	102	99.4	101	111	102	99.9	110	105	105	104	107	90.5	0	3.3	0	0	0
CN(C)C/C=C(/c1ccc(Br)cc1)c1cccnc1 [zimelidine]	> 10	> 10	> 10	> 10	> 10	101	100	102	96.5	100	103	97.8	102	94.2	102	89.6	97.5	91.3	100	90.3	99.7	107	96.6	99.2	93	100	98.9	90.6	93.6	101	0	0	0	0	0
C[C@@H](N)[C@H]1CC[C@H](C(=O)Nc2ccncc2)CC1	> 10	> 10	> 10	> 10	> 10	97.8	99.1	96.4	93.7	92.2	97.8	96.8	95.2	84.5	99.3	99	102	91.1	102	92	84.6	97.2	104	114	122	101	95.3	96.2	104	108	0	0	0	0	0
CCCCCCCC/C=C\CCCCCCCC(=O)NCc1ccc(O)c(OC)c1 [olvanil]	> 10	> 10	> 10	> 10	> 10	102	101	95.5	103	101	96.3	97.2	104	94.3	96.5	102	98.1	95.8	95.9	91	100	95	101	118	94.4	97.2	100	98	94.3	100	0	0	0	0	0
CC(C)(Oc1ccc(Cl)cc1)C(=O)O [clofibric-acid]	> 10	> 10	> 10	> 10	> 10	102	101	97.7	93.3	94.2	93.7	106	95.6	105	96.2	101	95.1	99.9	94.9	99.2	94.2	96.5	100	92.5	96.2	95.5	96.6	101	99.3	99.1	0	0	0	0	0
NCCCCCc1c[nH]cn1 [impentamine]	> 10	> 10	> 10	> 10	> 10	96.6	99.3	99.9	93.5	96.9	96.6	93.9	103	97.5	101	95.7	102	96.6	98.3	95.4	98.3	99.4	100	98.5	91.9	98	97.9	91.6	97	91.3	0	0	0	0	0
COc1ccccc1Oc1c(NS(=O)(=O)c2ccc(C)cn2)nc(-c2ccncc2)nc1OC [SPP301]	> 10	> 10	> 10	> 10	> 10	102	102	105	94.3	102	106	92.6	93.2	95.1	101	99.9	102	98.8	100	95.4	85.6	96.1	93.4	99	98	93.2	100	105	106	84.4	0	0	0	0	0.1
CNC(=O)c1cccc2cc(Oc3ccnc4cc(OCC5(N)CC5)c(OC)cc34)ccc12 [lucitanib]	> 10	> 10	> 10	> 10	> 10	97.2	100	98.8	86.1	86	95.7	108	106	104	84	99.1	94.4	93.6	99	91.5	98.8	93	101	98.9	92.1	93.6	98.1	93.2	97.6	100	1.2	0.2	0	0	0
O=[N+]([O-])c1ncc[nH]1 [azomycin-(2-nitroimidazole)]	> 10	> 10	> 10	> 10	> 10	99.6	102	101	100	100	104	104	102	107	93.8	89.5	88.7	94.9	98.6	101	100	102	94	92.5	99.8	109	104	107	87	108	0	0	0	0	0
COC(=O)c1cc(OC)c2c(c1-c1c(C(=O)OC)cc(OC)c3c1OCO3)OCO2 [bifendate]	> 10	> 10	> 10	> 10	> 10	105	105	105	94.6	107	94.8	84	93.2	93.8	90.4	99.3	99.3	97.6	99.5	101	94.4	98.1	101	106	104	112	104	98.4	102	89.6	0	0	0	0	0
